Measured values reported in the METLIN SMRT retention time set (Domingo-Almenara et al. 2019).

Assay: gradient 5% acetonitrile 3 min, to 50% in 2 min, to 85% in 15 min, held 3 min, 100 µL/min
Conditions: column: Zorbax Extend-C18 2.1 x 50 mm; eluents: water / acetonitrile, 0.1% formic acid
Outline: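 Pure standards were analyzed in mixtures of ~100 molecules using HPLC coupled to a quadrupole time-of-flight mass spectrometer, in both positive and negative ionization mode. Separation used a Zorbax Extend-C18 column (2.1 × 50 mm, 1.8 μm) at 100 μL/min, with water and acetonitrile each containing 0.1% formic acid. Dead and dwell volumes were 40 μL and 900 μL, and data were collected over 3 months. Retention time was read from computationally picked adduct peaks, each inspected manually.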

RP-LC retention time | SMILES
684 s | CN(C)C(=O)c1ccc2c(c1)nnn2CCNC(=O)Nc1cccc(Cl)c1
868 s | CC(NC(=O)c1cnc(-c2ccccc2)nc1-c1ccncc1)c1ccc(F)cc1 (centres undefined)
738 s | Cc1cc(N2CCCCC2)nc(N2CCN(C(=O)CC3CCCC3)CC2)n1
879 s | Cc1ccc(-c2cn3c(CC(=O)N4CCc5ccccc5C4)csc3n2)cc1C
669 s | O=C(Nc1ccccc1NC(=O)c1ccc(Br)o1)c1cccnc1
703 s | O=C(NCc1ccccn1)c1ccc2c(c1)CCCN2S(=O)(=O)c1ccccc1
644 s | CCCn1c(CCNC(=O)c2cccc(F)c2)nc2cccnc21
898 s | Cc1nc(-c2csc(S(=O)(=O)N3CCC(C(=O)N(C)Cc4ccccc4)CC3)c2)no1
965 s | COc1cc(C(=O)NC(C)COc2ccc(C(C)C)cc2)cc(OC)c1OC (centres undefined)
733 s | CCCC(NC(=O)c1cc(F)cc(F)c1)C(=O)Nc1nc2ccccc2[nH]1 (centres undefined)
679 s | CC(C)NC(=O)C1CCN(C(=O)c2ncn3c2COC(c2ccc(F)cc2)C3)CC1 (centres undefined)
834 s | Cc1ccc(NC(=O)C2CCCN(S(=O)(=O)c3cn(C(C)C)cn3)C2)c(Cl)c1 (centres undefined)
580 s | O=C(c1cnccn1)N1CCN(c2ccc(-n3cccn3)nn2)CC1
864 s | O=C(CCCn1c(=O)c2cccn2c2ccc(Br)cc21)NCc1ccco1
715 s | Cn1cnc2c(C(=O)NCC3CCCO3)nn(-c3ccc(Cl)cc3)c2c1=O (centres undefined)
615 s | O=C(NCCCN1CCOCC1)c1ccc2c(c1)N(C(=O)c1ccc(F)cc1)CC2
768 s | CCC(=O)N1CCc2cn(C)c3cccc(c23)C1
718 s | COCCCNC(=O)CCc1nnc2ccc(-c3ccc(C)c(C)c3)nn12
619 s | CC(C)(C)C1CCC2(CC1)CCN(CCCN1CCOCC1)CC2
834 s | C=Cc1ccc(CN2C(=O)N(c3cccc(F)c3)c3ncccc3S2(=O)=O)cc1
736 s | COc1ccc(C2CC(=O)N(CC(=O)N3CCOCC3)c3ccccc3S2)cc1OC (centres undefined)
720 s | O=c1ccc(-c2ccc3c(c2)OCO3)nn1CCc1nc(-c2cccnc2)no1
656 s | CCCc1nnsc1C(=O)NCc1nc(C)no1

RP-LC retention time | SMILES
1260 s | CSc1ccc(-c2noc(Cn3ncn4nc(-c5cc(C)ccc5C)cc4c3=O)n2)cc1
822 s | CC(C)NC(=O)c1ccc(OCC2CCN(C(=O)c3ccccc3F)CC2)cc1
701 s | CN(C)C(=O)c1ccc2c(c1)N(CC(=O)N1CCCCC1)C(=O)C1CCCCN21 (centres undefined)
810 s | O=C(NCc1ccco1)N(c1ccccc1)c1ccccc1
692 s | CCOc1ccc(Cl)cc1S(=O)(=O)N1CCC(C(=O)NCCO)CC1
1350 s | CCOc1cc(C(=O)Nc2ccc(F)cc2F)nc2c(F)cccc12
971 s | COCC(=O)N1CCc2c([nH]c3ccccc23)C1c1ccc(C)cc1 (centres undefined)
607 s | CCCS(=O)(=O)N1CC[C@@H]2CN(Cc3ccccc3)[C@@H]2C1
578 s | Cc1nn(-c2ccc(N3CCOCC3)nn2)c(C)c1CCC(=O)N1CCN(c2ccccn2)CC1
634 s | COc1cccc(-c2n[nH]c3c2C(c2ccc(O)c(OC)c2)NC3=O)c1 (centres undefined)
592 s | CCn1cc(S(=O)(=O)N2CCC(Cc3nc(-c4cccnc4)n[nH]3)C2)cn1 (centres undefined)
545 s | CC(C)C(=O)NCCc1nc2cccnc2n1C
610 s | O=C(Cn1ccc2ccccc21)Nc1ccccc1OC(F)(F)F
1000 s | CCC(c1cccs1)N1C(=O)[C@H]2CN(S(=O)(=O)c3ccccc3Cl)C[C@H]2C1=O (some centres undefined)
678 s | Cn1ccc2c(cc(C(=O)NCc3ccccc3F)n2C)c1=O
677 s | O=C(CCc1c(-c2ccc(Br)cc2)nc2ccccn12)NCc1cccc(F)c1
774 s | Cc1cccc(-c2ncccc2CNS(=O)(=O)c2cc(F)ccc2C)c1
1020 s | COc1ccc2c(c1)C=C(C(=O)Nc1ccccc1F)C=CO2
1130 s | COc1cc(NC(=O)c2csc(-c3ccc(C)n3C)n2)cc(OC)c1
1020 s | CCOCc1nc(C2CCCN2S(=O)(=O)c2ccc3c(c2)CCC3)no1 (centres undefined)
1170 s | CCc1ccc(-c2ccc(-n3nc(C)c(S(=O)(=O)N4CCCC4)c3C)nn2)cc1
1190 s | Cc1ccc(-n2ncc3c(=O)n(Cc4nc(-c5ccc(F)c(Cl)c5)no4)cnc32)cc1
994 s | Cc1nc(CC(=O)Nc2nc(-c3ccc(Br)cc3)c(C)s2)cs1

RP-LC retention time | SMILES
714 s | Cc1ccc(-c2cn3cccc(C)c3n2)cc1NS(=O)(=O)c1ccc(Cl)cc1
842 s | Cc1ccc(-c2cc3c4nn(CC(=O)N5CCCC5)c(=O)n4ccn3n2)cc1C
635 s | Cc1cc(F)cc2c(=O)c3c([nH]c12)CCN(CC(=O)Nc1cc(F)cc(F)c1)C3
927 s | Cc1ccc(NC(=O)Cn2c(=O)n(-c3ccccc3)c(=O)c3c2cc(C)n3C)c(Cl)c1
1160 s | Cc1ccc(-c2nnc(Cc3nc(-c4cccc(C(F)(F)F)c4)no3)o2)cc1
1100 s | Cc1cccc(NC(=O)N2c3ccccc3CC2c2nc(C3CC3)no2)c1C (centres undefined)
815 s | COc1ccc(C2C(C(=O)Nc3cc(OC)c(OC)c(OC)c3)c3ccccc3C(=O)N2C)cc1 (centres undefined)
644 s | CC(C)CNC(=O)CC1=C2CCCCC2NC1=O (centres undefined)
641 s | Cc1ccc(CNC(=O)C2CCN(c3cnn(C)c(=O)c3)C2)o1 (centres undefined)
1130 s | COc1ccc(-c2noc(C3CCCN3C(=O)Nc3cc(Cl)ccc3OC)n2)cc1 (centres undefined)
726 s | COc1cc2c(cc1OC)C(C(=O)N1CCOCC1)C(c1ccc(SC)cc1)N(C)C2=O (centres undefined)
682 s | COc1cc(-c2nc3ncccn3c2Nc2ccc(C)cc2C)ccc1O
994 s | Cc1ccc(-c2ncc(C(=O)Nc3ccc(Br)cc3)c(-c3ccncc3)n2)cc1
621 s | COCC1(O)CCOC2(CCN(C(=O)c3cccs3)CC2)C1 (centres undefined)
918 s | Cc1ccc(-c2nc(N3CCSCC3)ncc2C(=O)O)cc1
825 s | CCCCC(=O)N1CCCN(C2=NS(=O)(=O)C(c3ccc(F)cc3)=C2C)CC1
1160 s | CCc1nc2cc(-c3noc(Cc4ccc(C)cc4)n3)ccc2o1
626 s | COCCCN1CN=C(Nc2nc(C)c3ccccc3n2)NC1
998 s | CC(C)Cn1cc(CCNS(=O)(=O)c2ccc(Br)cc2)c2cccnc21
880 s | COc1ccc2[nH]c(C(=O)Nc3ccccc3)cc2c1
792 s | COc1cc(NC(=O)CCc2c(C)nn(-c3cc(N(C)C)ncn3)c2C)cc(OC)c1
746 s | O=C(Cn1ccc2sccc2c1=O)Nc1cccc(F)c1
891 s | CCn1ccc2sc(C)c(C(=O)NCc3ccc(Cl)cc3)c2c1=O

RP-LC retention time | SMILES
659 s | COc1ccc(NC(=O)Cn2c(C(C)C)nc3c(c2=O)CCN(Cc2ccccc2)C3)cc1OC
815 s | Cc1ccc(CNC(=O)CCc2nnc3c4cc(-c5ccccc5)nn4ccn23)cc1C
832 s | Cc1ccc(NC(=O)N2C[C@@H]3C[C@H](NS(=O)(=O)c4ccccc4)[C@H]2C3)c(C)c1
733 s | C=CCNC(=O)c1nc(C(=O)N2CCCCCC2)cs1
674 s | COC(CNC(=O)C1CCN(C(=O)c2ncn3c2COC(c2ccc(F)cc2)C3)CC1)OC (centres undefined)
730 s | O=C(Nc1cccc(F)c1)N1CCC2(C1)C(=O)Nc1ccccc12 (centres undefined)
610 s | CC(C)CN1CCN(S(=O)(=O)c2ccc(-c3nnc(C4CCC4)o3)o2)CC1
786 s | CCCNC(=O)CCc1nc2ccccc2n(CC(=O)NCc2ccc(C)cc2)c1=O
1050 s | O=S(=O)(Nc1ccc(F)cc1)c1cccnc1Nc1ccccc1
1200 s | CCCN1CCCCc2cc(C(=O)NC(C)(C)C)sc21
1190 s | CCN1C(=O)c2ccccc2Oc2ccc(C(=O)N3CCN(c4cc(Cl)ccc4C)CC3)cc21
904 s | Cc1cc(OCC(=O)Nc2cccc(Cl)c2)nc(N2CCN(c3ccccc3)CC2)n1
846 s | COC(=O)c1ccc(-c2csc(NC(=O)c3cc(C)no3)n2)cc1
802 s | CCN1C(=O)Cc2ccccc2C1C(=O)NCc1ccc(Br)cc1 (centres undefined)
716 s | CC(=O)O[C@@H]1CC[C@@]2(C)[C@H](C1)[C@H](OC(C)=O)C[C@@H]1[C@@H]2C[C@H]2[C@@H]3CN4C[C@H](C)CC[C@H]4[C@H](C)[C@H]3CC[C@@]12O
1210 s | COc1ccc(NC(=O)Cc2c(C)nn(-c3nc(-c4ccc(Cl)cc4)cs3)c2C)cc1
951 s | COc1ccc(S(=O)(=O)CCC(=O)N2CCCC2c2nc(-c3ccc(C)cc3)no2)cc1 (centres undefined)
551 s | O=C(Nc1nccnc1C(=O)NCCCN1CCOCC1)c1ccccc1
781 s | O=C(Nc1cccn2c(C3CCC3)nnc12)c1ccccn1
686 s | CCOC(=O)CNC(=O)NCCn1c(C(F)(F)F)nc2ccccc21
